Data set [1] relates to patients with moderate-to-severe AD. The conditions noted are these: Week 24; memantine 20 mg/day or placebo added to stable donepezil.
The test system is the same in data set [2]. The conditions noted are these: Week 24; memantine 20 mg/day or placebo added to stable donepezil. This is another data set of the same source.
For data set [3] the following is noted: 5 mg/day for 28 days in healthy subjects; cited from earlier work.
Data set [4] deals with patients with moderate-to-severe AD. The note with it: Week 24; memantine 20 mg/day or placebo added to stable donepezil. This is another data set of the same source.
The test system is the same in data set [5]. The conditions noted are these: 24 weeks; groups of 202 and 201.
The test system of data set [6] is human neuroblastoma cells SK-N-SH. The data set can be described thus: APP processing in cultured SK-N-SH cells (Western immunoblotting or ELISA). The format is cell-based. The conditions noted are these: memantine 1-4 μM. The method, then: NMDA receptors have been also implicated in the signalling cascades affecting or affected by APP processing. […] The present inventor and co-workers have studied the effect of memantine (NMDA receptor antagonist) on the processing of APP in cultured human neuroblastoma cells SK-N-SH. Cells were treated with memantine (1-4 μM) or vehicle, and the levels of sAPP and βAP40 in the conditioned media and the total intracellular APP were measured by Western immunoblotting or ELISA using specific antibodies.

Data set [7] shares this test system. Description: Cell viability and toxicity, MTT and LDH assays. The note with it: memantine 1-4 μM.
For data set [8] the following is noted: humans; cited from earlier work.
The next data set has as its system cytochrome P450 system. The conditions noted are these: in vitro studies; cited from earlier work.
For the next data set, the system named is healthy young subjects. The note with it: single 10 mg memantine alone or with multiple daily doses of 10 mg donepezil.
The nature of the next data set: clinical. The conditions noted are these: both, human, plasma, po.
The conditions of data set [9]: cited from earlier work.
The test system of data set [10] is human neuroblastoma cells. The note with it: in the absence of any detectable cellular damage or toxicity; cited from earlier work.

Where a name gives a salt, the structure may show the parent alone.

`COc1cc2c(cc1OC)C(=O)C(CC1CCN(Cc3ccccc3)CC1)C2` (racemic) [donepezil, (R,S)-1-benzyl-4-[(5,6-dimethoxy-1-indanon)-2yl]-methylpiperidine hydrochloride]: in data set [1], the “ADCS-ADL, change from Baseline to Endpoint (LOCF), LS mean change (SE)” value is on record as −3.4 (0.51). In addition, the “SIB, change from Baseline to Endpoint (LOCF), LS mean change (SE)” value in data set [2] was −2.5 (0.69). The “time of peak plasma concentrations” value in data set [3] was “approximately 3 hours”. In data set [4], the “CIBIC-Plus at Endpoint (LOCF), LS mean (SD)” value is 4.7 (1.05). For the same compound, in [5], the “Agitation, %” value is on record as “(11.9) %”; the “Confusion, %” value is “(2.0) %”; the “Constipation, %” value is reported as “(1.5) %”; the “Coughing, %” value was “(1.0) %”. In addition, in data set [5], the “Depression, %” value is “(3.0) %”; the “Diarrhoea, %” value is listed as “(8.5) %”; the “Dizziness, %” value is “(8.0) %”; the “Fall, %” value was “(7.0) %”. Further, in data set [5], the “Fatigue, %” value is on record as “(3.5) %”; the “Gait abnormal, %” value is given as “(1.0) %”; the “Headache, %” value was “(2.5) %”; the “Hypertension, %” value is recorded as “(1.5) %”. Further, in data set [5], the “Inflicted injury, %” value is recorded as “(8.0) %”; the “Influenza-like symptoms, %” value is “(6.5) %”; the “Oedema peripheral, %” value was “(4.0) %”; the “Pain, %” value is given as “(0.5) %”. In addition, in [5], the “Pat. with any AE, %” value was “(71.6) %”; the “Somnolence, %” value is listed as “(3.5) %”; the “Upper resp. tract infection, %” value is on record as “(6.5) %”; the “Urinary incontinence, %” value was “(3.0) %”. For the same compound, in [5], the “Urinary tract infection, %” value is listed as “(5.0) %” and the “Vomiting, %” value is “(3.0) %”.

In the case of `CC12CC3CC(C)(C1)CC(N)(C3)C2` [memantine, 1-amino-3,5-dimethyl adamantane], in data set [6], the “levels of total intracellular APP” value is recorded as “without affecting”, the “sAPP level in the conditioned media” value is “decrease” and the “βAP40 level in the conditioned media” value was “decrease”. The “cell viability and toxicity (MTT and LDH assays)” value in data set [7] is listed as “not affected”. The “therapeutically effective circulating concentration” value in data set [8] was 1 µM. For the same compound, the “potential of drug interactions with drugs metabolized via the cytochrome P450 system” value with cytochrome P450 system is “low potential”. Moreover, the safety and tolerability result in the data set with healthy young subjects is “safe and well-tolerated”. Further, the highest level in the data set “clinical” (Cmax) was 13 ng/mL. Besides, in the data set “clinical” (10 mg), the maximum concentration (Cmax) is 12.8 ng/mL and the Tmax is 6.5 h. In addition, the “dose recovered, mainly in the urine” value in data set [9] (after administration of 14C memantine) is 84%. Besides, the absolute bioavailability entry in data set [9] (in vivo, po) is “approximately 100%”. Also, the half-life in data set [9] (in vivo) is 60 to 80 h.

Take `Cl.Nc1c2c(nc3ccccc13)CCCC2` [tacrine, 1,2,3,4-tetrahydro-9-aminoacridine hydrochloride]: in data set [10], the “release of sAPPα, total βAP, βAP40 and βAP42” value is on record as “reduce”.
